Laboratory results: US20050034187A1, “Modified tet-inducible system for regulation of gene expression in plants” (priority 2000, published 2005)
Entries after “also recorded” stand apart in the source; their conditions may differ.

Assays:
lac repressor = lac repressor (Escherichia coli, UniProt P03023); details: Barkley and Bourgeois, 1980; cited from earlier work
cells = details: cited from earlier work
[1] = test system: wild type tet Receptor and TripleX-driven GUS gene (pAC489/pAC499 double transformants); assay: Seed germination test: induction of GUS gene in seedlings; type: in vivo, tobacco; details: for inducing activity (GUS reporter gene): seed germination test, FIG. 18
[2] = test system: tetracycline-sensitive bacteria; details: concentrations of 0.3 mg/l and lower; according to supplier; cited from earlier work
tobacco seedlings = assay: Visual evaluation of seedlings for toxicity in seed germination test
Text: The purpose of this experiment was to determine the concentration curve for selected analogs. Seeds of homozygous tobacco carrying wild type tet Receptor and TripleX-driven GUS gene (pAC489/pAC499 double transformants) were germinated in presence of several analogs at different concentrations. Seedlings were visually evaluated for toxicity, collected and assayed. Each point on the graph represents an average of three samples.
Seeds of T2 homozygous tobacco carrying wild type tet Receptor and TripleX-driven GUS gene were germinated in the presence of several new analogs at different concentrations. Seedlings were visually evaluated for toxicity, collected and assayed.
The next step in evaluating the analogs was to determine their respective concentration curve. Seeds of homozygous tobacco carrying wild type tet Receptor and TripleX-driven GUS gene (pAC489/pAC499 double transformants) were germinated in the presence of several analogs at different concentrations. Seedlings were visually evaluated for toxicity, collected and assayed.

[3] = test system: wild type tet Receptor and GUS gene controlled by TripleX promoter (pAC489/pAC499 double transformants); assay: Induction of the tet system in protoplast assays (GUS fluorescent assay); type: cell-based, tobacco; details: for magnitude of derepression (induction of GUS): protoplasts, seventh day of cultivation, FIG. 17
Description: Logarithmic scale is used for concentration axis.
Protoplasts were cultivated in the dark at 26° C. […] 100 μl of supernatant was used for the assay.

Mesophyll protoplasts = assay: Toxicity of chemicals to protoplasts (division rate); details: FIG. 17
Description: Mesophyll protoplasts were isolated from T2 transgenic tobacco carrying both wild type tet Receptor and GUS gene controlled by TripleX promoter (pAC489/pAC499 double transformants) and were cultivated at a concentration of 5×10^4 cells/ml in liquid KM medium supplemented with tet analogs at 2-5 mg/l in the dark at 26° C. Total and divided protoplasts were counted and GUS fluorescent assays were performed on the seventh day of cultivation. Toxicity of chemicals was evaluated by division rate—the number of divisions divided by the total number of viable cells and multiplied by 100. Each point on the graphs represents an average of three samples.
Protoplasts were cultivated in the dark at 26° C. First divisions were usually observed after 36-60 hours of cultivation; second and sometimes third divisions were visible beginning from the fifth day. Total and divided protoplasts were counted and GUS fluorescent assays performed on the seventh day. In all experiments protoplasts were counted in a fixed volume of 2 mm^3 using hemocytometer (Hausser Scientific Partnership). Toxicity of chemicals was evaluated by division rate—the number of divisions divided by the total number of viable cells and multiplied by 100. […] 100 μl of supernatant was used for the assay. […]

[4] = test system: pAC499 (TripleX/GUS) with pACAG084 ((OCS)3MAS/nTR) or pACAG049 (MAR-(OCS)3MAS/nTR); assay: Time series of GUS induction in whole rooted plants; type: in vivo, tobacco; details: roots, tetracycline 2 mg/l, FIG. 16
Description: FIG. 16—Induction of GUS Gene in Double Transformants: Time Series. Time series were run with the best double transformants carrying pAC499 (TripleX/GUS) and either of pACAG084 ((OCS)3MAS/nTR) or pACAG049 (MAR-(OCS)3MAS/nTR). Three weeks-old rooted plants were transferred from agar to magenta boxes with liquid medium and tetracycline 2 mg/l. Tissue samples were regularly taken from roots and assayed for GUS.
Time series were run with the best double transformants carrying pAC499 (TripleX/GUS) and either of pACAG084 ((OCS)3MAS/nTR) or pACAG049 (MAR-(OCS)3MAS/nTR). Three week-old rooted plants were transferred from agar to magenta boxes with liquid medium and tetracycline 2 mg/l. Tissue samples were regularly taken from leaves and roots and assayed for GUS. […] The latter result was consistently observed, as well as, in experiments from the literature.

Sequence of lac repressor (P03023 whole entry): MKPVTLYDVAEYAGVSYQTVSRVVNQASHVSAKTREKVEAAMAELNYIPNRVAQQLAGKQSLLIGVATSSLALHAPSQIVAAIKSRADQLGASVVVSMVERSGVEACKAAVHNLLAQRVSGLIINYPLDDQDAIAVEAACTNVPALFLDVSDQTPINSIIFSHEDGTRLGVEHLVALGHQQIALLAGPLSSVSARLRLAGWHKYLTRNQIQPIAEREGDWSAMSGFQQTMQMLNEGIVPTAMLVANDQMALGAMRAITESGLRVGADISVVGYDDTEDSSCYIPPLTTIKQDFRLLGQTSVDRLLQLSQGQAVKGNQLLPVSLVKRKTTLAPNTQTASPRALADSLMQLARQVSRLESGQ

CC(C)S[C@@H]1O[C@H](CO)[C@H](O)[C@H](O)[C@H]1O [IPTG, isopropyl-B-D-thiogalactopyranoside]
reduction of the affinity of repressor for the operator (lac repressor): 300 fold | toxicity of the level required to induce a lac repressor system (cells): cytotoxic to cells

CN(C)C1C(=O)C(C(N)=O)=C(O)C2(O)C(=O)C3=C(O)c4c(O)cccc4CC3CC12 (centres unmarked) [95702-03-7, 6-deoxy-6-demethyl tetracycline]
inducing activity (GUS reporter gene) [1]: higher than that of the industry standard, doxycycline | induction of the GUS reporter gene ([1]; summary of in vitro tests of several tetracycline analogs): very good induction | toxicity to tetracycline-sensitive bacteria [2]: not toxic to tetracycline-sensitive bacteria | toxicity compared with other inducers (tobacco seedlings; concentration curve experiment, FIG. 19): lower toxicity than doxycycline and tetracycline | inducer potency compared with tetracycline ([3]; concentrations of 0.3 mg/l and lower): more potent inducer at concentrations of 0.3 mg/l and lower | magnitude of derepression (induction of GUS) [3]: the same magnitude of derepression and toxicity as tetracycline | toxicity to plant cells (Mesophyll protoplasts): the same magnitude of derepression and toxicity as tetracycline

CN(C)C1C(=O)C(C(N)=O)=C(O)C2(O)C(=O)C3=C(O)c4c(O)ccc(Br)c4CC3CC12 (centres unmarked) [101057-85-6, 7-bromo-6-deoxy-6-demethyl tetracycline]
inducing activity (GUS reporter gene) [1]: moderate inducer

CN(C)[C@@H]1C(O)=C(C(N)=O)C(=O)[C@@]2(O)C(O)=C3C(=O)c4c(O)cccc4[C@@](C)(O)[C@H]3C[C@@H]12 [tetracycline]
magnitude of induction at maximum [4]: 3.5 fold | toxicity evaluation (growth of plantlets) (tobacco seedlings; concentration of 10 mg/l, FIG. 19 experiment): slightly stunted growth of plantlets

Cc1c2c(c(O)c3c(O)cccc13)C(=O)[C@]1(O)C(=O)C(C(N)=O)=C(O)[C@@H](N(C)C)[C@@H]1C2 [1665-56-1, anhydrotetracycline]
inducing activity (GUS reporter gene) [1]: negligible induction | magnitude of derepression (induction of GUS) [3]: not a good derepressing agent; also recorded: able to induce the system
